Source: the NIST ThermoML archive (doi:10.1016/j.jct.2019.02.011)

Assays:
[1] = Liquid, Vibrating tube method
[2] = xn = mol fraction of the nth substance listed; conditions: Liquid, Vibrating tube method, x2 = 0

CO [methanol]
mass density [kg/m3], [1]
Conditions | 100 kPa | 5000 kPa | 10000 kPa | 15000 kPa | 20000 kPa | 25000 kPa | 30000 kPa | 35000 kPa | 40000 kPa
288.15 K | 796.19 | 800.57 | 804.93 | 808.85 | 812.92 | 816.56 | 820.09 | 823.62 | 827.04
293.15 K | 791.18 | 795.97 | 800.47 | 804.52 | 808.43 | 812.34 | 815.93 | 819.32 | 822.48
298.15 K | 786.76 | 791.52 | 795.8 | 800.13 | 804.18 | 808.04 | 811.69 | 815.2 | 818.33
303.15 K | 782.07 | 786.79 | 791.31 | 795.85 | 800.16 | 804.08 | 807.78 | 811.31 | 814.7
308.15 K | 777.09 | 781.85 | 786.63 | 791.23 | 795.58 | 799.85 | 803.73 | 807.42 | 811.08

CO [methanol] + COC(=O)OC
mass density [kg/m3], [2]
Conditions | 100 kPa | 5000 kPa | 10000 kPa | 15000 kPa | 20000 kPa | 25000 kPa | 30000 kPa | 35000 kPa | 40000 kPa
288.15 K | 796.19 | 800.57 | 804.93 | 808.85 | 812.92 | 816.56 | 820.09 | 823.62 | 827.04
293.15 K | 791.18 | 795.97 | 800.47 | 804.52 | 808.43 | 812.34 | 815.93 | 819.32 | 822.48
298.15 K | 786.76 | 791.52 | 795.8 | 800.13 | 804.18 | 808.04 | 811.69 | 815.2 | 818.33
303.15 K | 782.07 | 786.79 | 791.31 | 795.85 | 800.16 | 804.08 | 807.78 | 811.31 | 814.7
308.15 K | 777.09 | 781.85 | 786.63 | 791.23 | 795.58 | 799.85 | 803.73 | 807.42 | 811.08

CCCO [propan-1-ol]
mass density [kg/m3], [1]
Conditions | 100 kPa | 5000 kPa | 10000 kPa | 15000 kPa | 20000 kPa | 25000 kPa | 30000 kPa | 35000 kPa | 40000 kPa
288.15 K | 807.62 | 811.32 | 814.7 | 817.95 | 821.27 | 824.24 | 827.24 | 830.04 | 832.73
293.15 K | 803.57 | 807.24 | 810.8 | 814.22 | 817.46 | 820.74 | 823.7 | 826.5 | 829.09
298.15 K | 799.61 | 803.49 | 807.15 | 810.5 | 813.78 | 816.92 | 820.04 | 822.87 | 825.81
303.15 K | 795.62 | 799.57 | 803.13 | 806.69 | 810.14 | 813.48 | 816.64 | 819.75 | 822.6
308.15 K | 791.31 | 795.4 | 799.21 | 802.79 | 806.37 | 809.72 | 813.03 | 816.12 | 819.06

CCCO [propan-1-ol] + COC(=O)OC
mass density [kg/m3], [2]
Conditions | 100 kPa | 5000 kPa | 10000 kPa | 15000 kPa | 20000 kPa | 25000 kPa | 30000 kPa | 35000 kPa | 40000 kPa
288.15 K | 807.62 | 811.32 | 814.7 | 817.95 | 821.27 | 824.24 | 827.24 | 830.04 | 832.73
293.15 K | 803.57 | 807.24 | 810.8 | 814.22 | 817.46 | 820.74 | 823.7 | 826.5 | 829.09
298.15 K | 799.61 | 803.49 | 807.15 | 810.5 | 813.78 | 816.92 | 820.04 | 822.87 | 825.81
303.15 K | 795.62 | 799.57 | 803.13 | 806.69 | 810.14 | 813.48 | 816.64 | 819.75 | 822.6
308.15 K | 791.31 | 795.4 | 799.21 | 802.79 | 806.37 | 809.72 | 813.03 | 816.12 | 819.06
